Patent US5306808A, “Peptide derivatives having vasodilating activity” (Takeda Chemical Industries, Ltd., priority 1991, dated 1994)
pEC50: −log10 of the molar value. Where a SMILES comes first, the peptide text is derived from it. Bridges are numbered along the chain shown (N, C = ends).

Columns and labels:
porcine coronary artery = type: cell-based; conditions: for Constrictor activity (Relative potency): ET-1 = 100; for Maximum Constriction (% 60 mM KCl): normalized to constriction response to 60 mM KCl
Method: Each of helical strips 2 mm×15 mm prepared from the coronary right ramus circumflexus from which the adventitial connective tissues and the endothelial cells were removed was set to each of 4 ml organ baths. Its tension was detected by a force displacement transducer UL-10GR (Minebea), and recorded by a polygraph (NEC Sanei). The organ baths were maintained at 37° C., and filled with a Krebs-Henseleit solution (composition:118 mM NaCl, 4.7 mM KCl, 2.5 mM CaCl2, 1.2 mM KH2 PO4, 25.0 mM NaHCO3, 1.2 mM MgSO4, 10.0 mM glucose) gassed with 95% O2 and 5% CO2.
A tension of 1.25 to 1.5 g was applied to each of the strips, followed by equilibration for 1.5 hours. 60 mM KCl was repeatedly applied thereto at intervals of 30 minutes until the constriction response became constant. After additional equilibration for 1.5 hours, a sample for assay was given. The constriction of the strips was normalized by the constriction response of the individual strips to 60 mM KCl and statistically processed.
(2) As to the antagonist property or the agonist property of the peptide derivatives of present invention to endothelin, the affinity for an endothelin receptor and the constrictor activity to porcine coronary smooth muscles (according to the method described in (1) described above) were assayed. The affinity for the receptor was assayed by the following method.

endothelin receptor = assay: Assay of affinity for receptor (I125-ET-1 binding to porcine myocardial membrane fraction); conditions: ET-1 = 100
Method: A membrane fraction prepared from the porcine heart was diluted to 0.15 mg/ml by using a buffer solution [PBS (pH 7.4) containing 0.5 mM CaCl2, 1.0 mM MgCl2, 0.02% NaN3, 0.1% BSA (fraction V, Sigma), 0.1 mM PMSF and 0.1 μg/ml pepstatin (binding buffer)] for assay, and 100 μl of the resulting suspension of the membrane fraction was poured into each assay tube to use for assay. To this suspension of the membrane fraction were added 2 μl of an endothelin-1 solution labeled with 5 μM radioactive iodine. Further, 3 μl of a test peptide solution was added thereto, followed by maintenance at a temperature of 25° C. for 1 hour. Then, the resulting suspension was diluted with 900 μl of the buffer solution for assay cooled with ice, and thereafter separated into a supernatant and a precipitate by centrifugation at 12,000×g for 10 minutes. Cell membranes and an endothelin receptor embedded therein were contained in the precipitate, and radioactive iodine-labeled endothelin combined with the receptor was also recovered in the precipitate. Accordingly, the amount of radioactive iodine-labeled endothelin combined with the endothelin receptor was determined by measuring the amount of radioactive iodine contained in the precipitate with a gamma-ray counter. Compounds in which the affinity for the endothelin receptor is high and the maximum constriction is not high are antagonists. Contrary to this, compounds in which the affinity for the endothelin receptor is high and the maximum constriction is high are agonists.

Compound: CC[C@H](C)[C@H](NC(=O)[C@H](CC(=O)O)NC(=O)[C@H](CC(C)C)NC(=O)[C@H](Cc1c[nH]cn1)NC(=O)[C@@H]1CSSC[C@H](N)C(=O)N[C@@H](CO)C(=O)N[C@H]2CSSC[C@H](NC(=O)[C@H](CCC(=O)O)NC(=O)[C@H](CCCCN)NC(=O)[C@H](CC(=O)O)NC(=O)[C@H](CCSC)NC(=O)[C@H](CC(C)C)NC(=O)[C@H](CO)NC(=O)[C@H](CO)NC2=O)C(=O)N[C@@H](C(C)C)C(=O)N[C@@H](Cc2ccc(O)cc2)C(=O)N[C@@H](Cc2ccccc2)C(=O)N1)C(=O)N[C@H](C(=O)N[C@@H](Cc1c[nH]c2ccccc12)C(=O)O)[C@@H](C)CC [ET-1, endothelin-1, reference compound]
- pEC50 (porcine coronary artery; read-out: EC50 (% KCL), concentration which induces 50% of the constriction due to 60 mM KCl): 8.80

Compound: CC[C@H](C)[C@H](NC(=O)[C@H](CC(=O)O)NC(=O)[C@H](CC(C)C)NC(=O)[C@H](Cc1c[nH]cn1)NC(=O)[C@@H]1CSSC[C@H](N)C(=O)N[C@@H](CO)C(=O)N[C@@H](Cc2c[nH]c3ccccc23)C(=O)N[C@@H](CO)C(=O)N[C@@H](CO)C(=O)N[C@@H](CC(C)C)C(=O)N[C@@H](CCSC)C(=O)N[C@@H](CC(=O)O)C(=O)N[C@@H](CCCCN)C(=O)N[C@@H](CCC(=O)O)C(=O)N[C@@H](C)C(=O)N[C@@H](C(C)C)C(=O)N[C@@H](Cc2ccc(O)cc2)C(=O)N[C@@H](Cc2ccccc2)C(=O)N1)C(=O)N[C@H](C(=O)N[C@@H](Cc1c[nH]c2ccccc12)C(=O)O)[C@@H](C)CC [Example 13, [Trp^3, Ala^11]-ET-1] (H-CSWSSLMDKEAVYFCHLDIIW-OH; disulfide 1-15)
- Receptor binding activity (Relative potency) (endothelin receptor): 2.5
- Constrictor activity (Relative potency) (porcine coronary artery): < 0.1
- Maximum Constriction (% 60 mM KCl) (porcine coronary artery): 6 % 60 mM KCl

Compound: CC[C@H](C)[C@H](NC(=O)[C@H](C)NC(=O)[C@H](CC(C)C)NC(=O)[C@H](Cc1c[nH]cn1)NC(=O)[C@@H]1CSSC[C@H](N)C(=O)N[C@@H](CO)C(=O)N[C@@H](C)C(=O)N[C@@H](CO)C(=O)N[C@@H](CO)C(=O)N[C@@H](CC(C)C)C(=O)N[C@@H](CCSC)C(=O)N[C@@H](CC(=O)O)C(=O)N[C@@H](CCCCN)C(=O)N[C@@H](CCC(=O)O)C(=O)N[C@@H](C)C(=O)N[C@@H](C(C)C)C(=O)N[C@@H](Cc2ccc(O)cc2)C(=O)N[C@@H](Cc2ccccc2)C(=O)N1)C(=O)N[C@H](C(=O)N[C@@H](Cc1c[nH]c2ccccc12)C(=O)O)[C@@H](C)CC [Example 21, [Ala^3,11,18]-ET-1] (H-CSASSLMDKEAVYFCHLAIIW-OH; disulfide 1-15)
- Receptor binding activity (Relative potency) (endothelin receptor): 1.59
- Constrictor activity (Relative potency) (porcine coronary artery): < 0.1
- Maximum Constriction (% 60 mM KCl) (porcine coronary artery): 6 % 60 mM KCl

Compound: CC[C@H](C)[C@H](NC(=O)[C@H](CC(C)C)NC(=O)[C@H](CC(C)C)NC(=O)[C@H](Cc1c[nH]cn1)NC(=O)[C@@H]1CSSC[C@H](N)C(=O)N[C@@H](CO)C(=O)N[C@@H](C)C(=O)N[C@@H](CO)C(=O)N[C@@H](CO)C(=O)N[C@@H](CC(C)C)C(=O)N[C@@H](CCSC)C(=O)N[C@@H](CC(=O)O)C(=O)N[C@@H](CCCCN)C(=O)N[C@@H](CCC(=O)O)C(=O)N[C@@H](C)C(=O)N[C@@H](C(C)C)C(=O)N[C@@H](Cc2ccc(O)cc2)C(=O)N[C@@H](Cc2ccccc2)C(=O)N1)C(=O)N[C@H](C(=O)N[C@@H](Cc1c[nH]c2ccccc12)C(=O)O)[C@@H](C)CC [Example 22, [Ala^3,11, Leu^18]-ET-1] (H-CSASSLMDKEAVYFCHLLIIW-OH; disulfide 1-15)
- Receptor binding activity (Relative potency) (endothelin receptor): 1.27
- Constrictor activity (Relative potency) (porcine coronary artery): < 0.1
- Maximum Constriction (% 60 mM KCl) (porcine coronary artery): 3 % 60 mM KCl

Compound: CC[C@H](C)[C@H](NC(=O)[C@H](Cc1ccccc1)NC(=O)[C@H](CC(C)C)NC(=O)[C@H](Cc1c[nH]cn1)NC(=O)[C@@H]1CSSC[C@H](N)C(=O)N[C@@H](CO)C(=O)N[C@@H](C)C(=O)N[C@@H](CO)C(=O)N[C@@H](CO)C(=O)N[C@@H](CC(C)C)C(=O)N[C@@H](CCSC)C(=O)N[C@@H](CC(=O)O)C(=O)N[C@@H](CCCCN)C(=O)N[C@@H](CCC(=O)O)C(=O)N[C@@H](C)C(=O)N[C@@H](C(C)C)C(=O)N[C@@H](Cc2ccc(O)cc2)C(=O)N[C@@H](Cc2ccccc2)C(=O)N1)C(=O)N[C@H](C(=O)N[C@@H](Cc1c[nH]c2ccccc12)C(=O)O)[C@@H](C)CC [Example 23, [Ala^3,11, Phe^18]-ET-1] (H-CSASSLMDKEAVYFCHLFIIW-OH; disulfide 1-15)
- Receptor binding activity (Relative potency) (endothelin receptor): 1.27
- Constrictor activity (Relative potency) (porcine coronary artery): < 0.1
- Maximum Constriction (% 60 mM KCl) (porcine coronary artery): 8 % 60 mM KCl

Compound: CC[C@H](C)[C@H](NC(=O)[C@H](C)NC(=O)[C@H](CC(C)C)NC(=O)[C@H](Cc1c[nH]cn1)NC(=O)[C@@H]1CSSC[C@H](N)C(=O)N[C@@H](CO)C(=O)N[C@H]2CSSC[C@H](NC(=O)[C@H](CCC(=O)O)NC(=O)[C@H](CCCCN)NC(=O)[C@H](CC(=O)O)NC(=O)[C@H](CCSC)NC(=O)[C@H](CC(C)C)NC(=O)[C@H](CO)NC(=O)[C@H](CO)NC2=O)C(=O)N[C@@H](C(C)C)C(=O)N[C@@H](Cc2ccc(O)cc2)C(=O)N[C@@H](Cc2ccccc2)C(=O)N1)C(=O)N[C@H](C(=O)N[C@@H](Cc1c[nH]c2ccccc12)C(=O)O)[C@@H](C)CC [Example 25, [Ala^18]-ET-1] (H-CSCSSLMDKECVYFCHLAIIW-OH; disulfide 1-15, 3-11)
- Receptor binding activity (Relative potency) (endothelin receptor): 9.1
- Constrictor activity (Relative potency) (porcine coronary artery): 7.8
- Maximum Constriction (% 60 mM KCl) (porcine coronary artery): 62 % 60 mM KCl

Compound: CC[C@H](C)[C@H](NC(=O)[C@H](CC(C)C)NC(=O)[C@H](CC(C)C)NC(=O)[C@H](Cc1c[nH]cn1)NC(=O)[C@@H]1CSSC[C@H](N)C(=O)N[C@@H](CO)C(=O)N[C@H]2CSSC[C@H](NC(=O)[C@H](CCC(=O)O)NC(=O)[C@H](CCCCN)NC(=O)[C@H](CC(=O)O)NC(=O)[C@H](CCSC)NC(=O)[C@H](CC(C)C)NC(=O)[C@H](CO)NC(=O)[C@H](CO)NC2=O)C(=O)N[C@@H](C(C)C)C(=O)N[C@@H](Cc2ccc(O)cc2)C(=O)N[C@@H](Cc2ccccc2)C(=O)N1)C(=O)N[C@H](C(=O)N[C@@H](Cc1c[nH]c2ccccc12)C(=O)O)[C@@H](C)CC [Example 26, [Leu^18]-ET-1] (H-CSCSSLMDKECVYFCHLLIIW-OH; disulfide 1-15, 3-11)
- Receptor binding activity (Relative potency) (endothelin receptor): 2.4
- Constrictor activity (Relative potency) (porcine coronary artery): < 0.1
- Maximum Constriction (% 60 mM KCl) (porcine coronary artery): 0 % 60 mM KCl

Compound: CC[C@H](C)[C@H](NC(=O)[C@@H](NC(=O)[C@H](CC(C)C)NC(=O)[C@H](Cc1c[nH]cn1)NC(=O)[C@@H]1CSSC[C@H](N)C(=O)N[C@@H](CO)C(=O)N[C@H]2CSSC[C@H](NC(=O)[C@H](CCC(=O)O)NC(=O)[C@H](CCCCN)NC(=O)[C@H](CC(=O)O)NC(=O)[C@H](CCSC)NC(=O)[C@H](CC(C)C)NC(=O)[C@H](CO)NC(=O)[C@H](CO)NC2=O)C(=O)N[C@@H](C(C)C)C(=O)N[C@@H](Cc2ccc(O)cc2)C(=O)N[C@@H](Cc2ccccc2)C(=O)N1)C(C)C)C(=O)N[C@H](C(=O)N[C@@H](Cc1c[nH]c2ccccc12)C(=O)O)[C@@H](C)CC [Example 27, [Val^18]-ET-1] (H-CSCSSLMDKECVYFCHLVIIW-OH; disulfide 1-15, 3-11)
- Receptor binding activity (Relative potency) (endothelin receptor): 3.2
- Constrictor activity (Relative potency) (porcine coronary artery): < 0.1
- Maximum Constriction (% 60 mM KCl) (porcine coronary artery): 2 % 60 mM KCl

Compound: CC[C@H](C)[C@H](NC(=O)CNC(=O)[C@H](CC(C)C)NC(=O)[C@H](Cc1c[nH]cn1)NC(=O)[C@@H]1CSSC[C@H](N)C(=O)N[C@@H](CO)C(=O)N[C@H]2CSSC[C@H](NC(=O)[C@H](CCC(=O)O)NC(=O)[C@H](CCCCN)NC(=O)[C@H](CC(=O)O)NC(=O)[C@H](CCSC)NC(=O)[C@H](CC(C)C)NC(=O)[C@H](CO)NC(=O)[C@H](CO)NC2=O)C(=O)N[C@@H](C(C)C)C(=O)N[C@@H](Cc2ccc(O)cc2)C(=O)N[C@@H](Cc2ccccc2)C(=O)N1)C(=O)N[C@H](C(=O)N[C@@H](Cc1c[nH]c2ccccc12)C(=O)O)[C@@H](C)CC [Example 28, [Gly^18]-ET-1] (H-CSCSSLMDKECVYFCHLGIIW-OH; disulfide 1-15, 3-11)
- Receptor binding activity (Relative potency) (endothelin receptor): 39.8
- Constrictor activity (Relative potency) (porcine coronary artery): 43
- Maximum Constriction (% 60 mM KCl) (porcine coronary artery): 99 % 60 mM KCl
